Our source for the EC50 values is US20210315893A1 (Galapagos NV, priority 2017, published 2021).

The target of assay [1] is T1, human GPCR sphingosine 1-phosphate receptor 2 (Homo sapiens, UniProt O95136).
T1 construct: host or cells: CHO
Kind of assay: S1PR2 antagonist Ca2+ flux assay. The assay is classed as cell-based. Conditions: antagonist mode, CHO-S1PR2 cells, S1P at EC80, Ca2+ fluorescence; read-out: S1P2 EC50 (nM), S1P2 antagonist EC50. In a few lines: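 Antagonist mode: 15 min after compound addition, S1P (EC80) stimulates Fluo8-loaded, 1 h-starved CHO-S1PR2 cells, Ca2+ read over 3 min; a prior 3-min read checks compound agonism. EC50 from peak/baseline fluorescence ratio, normalised versus vehicle and S1P EC50 (antagonist) or EC100 (agonist).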
On the technique in general: A change in cytosolic calcium serves as a functional read-out for many receptors and channels.

Another assay deals with T2, S1PR2 (Homo sapiens, UniProt O95136).
T2 construct: expressed in transfected cells
The assay can be described thus: S1PR2 binding assay (competition with radioactively labeled S1P, SpA). The conditions noted are these: membranes from stable cell line over expressing S1PR2, SpA beads; read-out: S1P2 EC50 (nM), S1PR2 binding EC50. In a few lines:
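Scintillation proximity read-out after 2 h room-temperature incubation of compound, [3H]S1P and S1PR2-overexpressing cell membranes on WGA-coated beads. Buffer: 20 mM Tris pH 7.5, 100 mM NaCl, 10 mM MgCl2, 1 mM Na3VO4, 0.4% fatty-acid-free BSA; plates counted immediately after centrifugation.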

The subject of assay [2] is HFL-1 cells. Kind of assay: IL-8 production assay (S1P induced IL-8). Conditions: Homo sapiens, HFL1; S1P (1 μM) induced IL-8 in HFL-1 cells, starvation medium without HSA; read-out: IL8 EC50. The format is cell-based. The method, boiled down:
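HFL-1 fibroblasts in low-serum medium were pretreated 1 h with a 10-point 1/3 series of compound starting at 30 μM (0.3% DMSO).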

In assay [3] the test system is HFL-1 cells. Kind of assay: IL8 assay in the presence of Human Serum Albumin. Conditions: HFL1, read-out: HSA IL8 EC50.

One may read the EC50 as the concentration giving half of the maximal effect.

T1 sequence (O95136 whole entry): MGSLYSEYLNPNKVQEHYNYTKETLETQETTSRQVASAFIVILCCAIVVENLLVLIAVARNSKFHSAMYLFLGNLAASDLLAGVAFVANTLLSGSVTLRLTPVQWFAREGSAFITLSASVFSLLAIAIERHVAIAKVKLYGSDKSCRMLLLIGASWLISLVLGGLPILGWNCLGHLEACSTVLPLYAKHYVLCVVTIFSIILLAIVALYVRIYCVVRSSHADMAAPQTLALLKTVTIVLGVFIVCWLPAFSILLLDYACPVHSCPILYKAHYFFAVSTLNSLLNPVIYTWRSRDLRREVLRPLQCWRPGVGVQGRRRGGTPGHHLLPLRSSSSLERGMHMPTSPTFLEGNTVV
T2 sequence (O95136 whole entry): as above

For the molecule `COC(C)(C)CNC(=O)Cn1nc(Cc2nc3cc(OCC(F)F)c(C#N)cc3[nH]2)c2ccccc2c1=O` [Compound 182, 2-[4-[[6-cyano-5-(2,2-difluoroethoxy)-1H-benzimidazol-2-yl]methyl]-1-oxo-phthalazin-2-yl]-N-(2-methoxy-2-methyl-propyl)acetamide], the 50% effective concentration (EC50) came to 17.3 nM in assay [1], 53.4 nM on S1PR2, 0.00966 µM in the assay with HFL-1 cells [2] and 0.0547 µM with HFL-1 cells [3].
Take `COCCN(C)C(=O)Cn1nc(Cc2nc3cc(OCC(F)F)c(C#N)cc3[nH]2)c2ccccc2c1=O` [Compound 183, 2-[4-[[6-cyano-5-(2,2-difluoroethoxy)-1H-benzimidazol-2-yl]methyl]-1-oxo-phthalazin-2-yl]-N-(2-methoxyethyl)-N-methyl-acetamide]: the half-maximal effective concentration (EC50) was found to be 76 nM in assay [1], 307 nM at S1PR2, 0.196 µM in the assay with HFL-1 cells [2] and 0.43 µM in the assay on HFL-1 cells [3].
Take `N#Cc1cc2[nH]c(Cc3nn(CC(=O)NC4CCCOC4)c(=O)c4ccccc34)nc2cc1OCC(F)F` (stereo not drawn) [Compound 184, 2-[4-[[6-cyano-5-(2,2-difluoroethoxy)-1H-benzimidazol-2-yl)methyl]-1-oxo-phthalazin-2-yl]-N-tetrahydropyran-3-yl-acetamide]: the 50% effective concentration (EC50) in assay [1] was determined as 25.2 nM; on S1PR2, 94.3 nM; with HFL-1 cells [2] it was 0.0238 µM; with HFL-1 cells [3] it was 0.0823 µM.
For `N#Cc1cc2nc(Cc3nn(CC(=O)N4CCC(F)(F)CC4)c(=O)c4c3CCCC4)[nH]c2cc1OCC(F)F` [Compound 185, 6-(2,2-difluoroethoxy)-2-[[3-[2-(4,4-difluoro-1-piperidyl)-2-oxo-ethyl]-4-oxo-5,6,7,8-tetrahydrophthalazin-1-yl]methyl]-1H-benzimidazole-5-carbonitrile], the EC50 stood at 30.4 nM in assay [1], 166 nM at S1PR2, 0.0937 µM in the assay on HFL-1 cells [2] and 0.301 µM with HFL-1 cells [3].
Turning to `COC1CCN(C(=O)Cn2nc(Cc3nc4cc(C#N)c(OCC(F)F)cc4[nH]3)c3ccccc3c2=O)C1` (stereo not drawn) [Compound 186, 6-(2,2-difluoroethoxy)-2-[[3-[2-(3-methoxypyrrolidin-1-yl)-2-oxo-ethyl]-4-oxo-phthalazin-1-yl]methyl]-1H-benzimidazole-5-carbonitrile], the EC50 in assay [1] stood at 25 nM; at S1PR2 it was 141 nM; in the assay with HFL-1 cells [2], 0.0348 µM; with HFL-1 cells [3] it was 0.0809 µM.
Regarding `COCCNC(=O)Cn1nc(Cc2nc3cc(C#N)c(OCC(F)F)cc3[nH]2)c2ccccc2c1=O` [Compound 187, 2-[4-[[5-cyano-6-(2,2-difluoroethoxy)-1H-benzimidazol-2-yl]methyl]-1-oxo-phthalazin-2-yl]-N-(2-methoxyethyl)acetamide], the EC50 amounted to 50.2 nM in assay [1], 165 nM at S1PR2, 0.0745 µM in the assay with HFL-1 cells [2] and 0.0804 µM in the assay with HFL-1 cells [3].
As to `N#Cc1cc2nc(Cc3nn(CC(=O)N4CCC(F)(F)CC4)c(=O)c4ccccc34)[nH]c2cc1OCC(F)F` [Compound 188, 6-(2,2-difluoroethoxy)-2-[[3-[2-(4,4-difluoro-1-piperidyl)-2-oxo-ethyl]-4-oxo-phthalazin-1-yl]methyl]-1H-benzimidazole-5-carbonitrile], the 50% effective concentration (EC50) in assay [1] came out at 63.4 nM; on S1PR2 it was 380 nM; in the assay on HFL-1 cells [2] it was 0.258 µM; in the assay on HFL-1 cells [3], 0.663 µM.
On to `CC(O)(CNC(=O)Cn1nc(Cc2nc3cc(C#N)c(OCC(F)F)cc3[nH]2)c2ccccc2c1=O)C(F)(F)F` (stereo not drawn) [Compound 190, 2-[4-[[5-cyano-6-(2,2-difluoroethoxy)-1H-benzimidazol-2-yl]methyl]-1-oxo-phthalazin-2-yl]-N-(3,3,3-trifluoro-2-hydroxy-2-methylpropyl)acetamide], for which the EC50 in assay [1] was 15 nM; on S1PR2, 63.6 nM; in the assay on HFL-1 cells [2], 0.0201 µM; in the assay on HFL-1 cells [3], 0.038 µM.
Taken in the same sequence, the figures for `N#Cc1cc2nc(Cc3nn(CC(=O)NC[C@H](O)C(F)(F)F)c(=O)c4ccccc34)[nH]c2cc1OCC(F)F` [Compound 191, 2-[4-[[5-cyano-6-(2,2-difluoroethoxy)-1H-benzimidazol-2-yl]methyl]-1-oxo-phthalazin-2-yl]-N-[(2S)-3,3,3-trifluoro-2-hydroxypropyl]acetamide] were 11.8 nM, 66.4 nM, 0.0367 µM and 0.0999 µM.
As to `COCC(O)CNC(=O)Cn1nc(Cc2nc3cc(C#N)c(OCC(F)F)cc3[nH]2)c2ccccc2c1=O` (stereo not drawn) [Compound 192, 2-[4-[[5-cyano-6-(2,2-difluoroethoxy)-1H-benzimidazol-2-yl]methyl]-1-oxo-phthalazin-2-yl]-N-(2-hydroxy-3-methoxypropyl)acetamide], the EC50 in assay [1] came to 41 nM; on S1PR2, 190 nM; in the assay on HFL-1 cells [2], 0.156 µM; with HFL-1 cells [3], 0.666 µM.
With `N#Cc1cc2nc(Cc3nn(CC(=O)N4CCC(O)CC4)c(=O)c4ccccc34)[nH]c2cc1OCC(F)F` [Compound 193, 6-(2,2-difluoroethoxy)-2-[[3-[2-(4-hydroxy-1-piperidyl)-2-oxo-ethyl]-4-oxo-phthalazin-1-yl]methyl]-1H-benzimidazole-5-carbonitrile], the EC50 in assay [1] stood at 36.5 nM; on S1PR2, 346 nM; with HFL-1 cells [2], 0.0497 µM; in the assay on HFL-1 cells [3] it was 0.183 µM.
On to `N#Cc1cc2nc(Cc3nn(CC(=O)N(CCO)CC(F)F)c(=O)c4ccccc34)[nH]c2cc1OCC(F)F` [Compound 194, 2-[4-[[5-cyano-6-(2,2-difluoroethoxy)-1H-benzimidazol-2-yl]methyl]-1-oxo-phthalazin-2-yl]-N-(2,2-difluoroethyl)-N-(2-hydroxyethyl)acetamide], for which the EC50 in assay [1] stood at 41.9 nM; on S1PR2 it was 268 nM; in the assay with HFL-1 cells [2], 0.186 µM; in the assay with HFL-1 cells [3], 0.453 µM.
For `CC(C#N)CN(C)C(=O)Cn1nc(Cc2nc3cc(C#N)c(OCC(F)F)cc3[nH]2)c2ccccc2c1=O` (stereo not drawn) [Compound 195, 2-[4-[[5-cyano-6-(2,2-difluoroethoxy)-1H-benzimidazol-2-yl]methyl]-1-oxo-phthalazin-2-yl]-N-(2-cyanopropyl)-N-methyl-acetamide] the same measures were 31.9 nM, 197 nM, 0.0278 µM and 0.171 µM.
For `CN(CC1CC1)C(=O)Cn1nc(Cc2nc3cc(C#N)c(OCC(F)F)cc3[nH]2)c2ccccc2c1=O` [Compound 196, 2-[4-[[5-cyano-6-(2,2-difluoroethoxy)-1H-benzimidazol-2-yl]methyl]-1-oxo-phthalazin-2-yl]-N-(cyclopropylmethyl)-N-methyl-acetamide], the EC50 in assay [1] is 15.7 nM; at S1PR2 it was 83.1 nM; with HFL-1 cells [2], 0.0272 µM; with HFL-1 cells [3], 0.445 µM.
For `CN(CC(F)F)C(=O)Cn1nc(Cc2nc3cc(C#N)c(OCC(F)F)cc3[nH]2)c2ccccc2c1=O` [Compound 197, 2-[4-[[5-cyano-6-(2,2-difluoroethoxy)-1H-benzimidazol-2-yl]methyl]-1-oxo-phthalazin-2-yl]-N-(2,2-difluoroethyl)-N-methyl-acetamide] the same measures were 32.5 nM, 80.3 nM, 0.139 µM and 0.635 µM.
On to `N#Cc1cc2nc(Cc3nn(CC(=O)NCC4(CO)COC4)c(=O)c4ccccc34)[nH]c2cc1OCC(F)F` [Compound 199, 2-[4-[[5-cyano-6-(2,2-difluoroethoxy)-1H-benzimidazol-2-yl)methyl]-1-oxo-phthalazin-2-yl]-N-[[3-(hydroxymethyl)oxetan-3-yl]methyl]acetamide], for which the half-maximal effective concentration (EC50) in assay [1] stood at 54.6 nM; at S1PR2, 173 nM; in the assay with HFL-1 cells [2], 0.0803 µM; with HFL-1 cells [3], 0.276 µM.
`N#Cc1cc2nc(Cc3nn(CC(=O)N4CCOCC4)c(=O)c4c3CCCC4)[nH]c2cc1OCC(F)(F)F` [Compound 200, 2-[[3-(2-morpholino-2-oxo-ethyl)-4-oxo-5,6,7,8-tetrahydrophthalazin-1-yl]methyl]-6-(2,2,2-trifluoroethoxy)-1H-benzimidazole-5-carbonitrile]: the EC50 in assay [1] came out at 8.77 nM; on S1PR2, 93.7 nM; with HFL-1 cells [2], 0.0106 µM; in the assay on HFL-1 cells [3], 0.103 µM.
With `CC(C)(C)CNC(=O)Cn1nc(Cc2nc3cc(OCC(F)F)c(C#N)cc3[nH]2)c2ccccc2c1=O` [Compound 202, 2-[4-[[6-cyano-5-(2,2-difluoroethoxy)-1H-benzimidazol-2-yl]methyl)-1-oxo-phthalazin-2-yl]-N-(2,2-dimethylpropyl)acetamide], the half-maximal effective concentration (EC50) is 6.86 nM in assay [1], 48 nM on S1PR2, 0.0134 µM in the assay on HFL-1 cells [2] and 0.479 µM with HFL-1 cells [3].
